# Assay results taken from patent US8383619B2, “Pharmaceutical compounds” (Astex Therapeutics Limited, priority 2008, dated 2013).
# Experiments:
# Assay type in all cases: cell-based
# Hs 294T = test: Anti-proliferative assay (Oncodesign); conditions: Homo sapiens; Hs 294T (SKIN); read-out: IC50 (Concentration of test compound)
# How it was run: (§1)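 Cells recovered 16 h after plating, then were exposed to compound for 72 h; 10% (v/v) Alamar Blue was added for 6 h and resorufin fluorescence read at 535 nm ex/[…]. IC50 values in nM, top concentration tested 10,000 nanomolar.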
# NCI-H460 = test: Anti-proliferative assay (Oncodesign); conditions: Homo sapiens; NCI-H460 (LUNG); read-out: IC50 (Concentration of test compound)
# How it was run: as §1
# NCI-H596 = test: Anti-proliferative assay (Oncodesign); conditions: Homo sapiens; NCI-H596 (LUNG); read-out: IC50 (Concentration of test compound)
# How it was run: as §1
# ARH-77 = test: Anti-proliferative assay (Oncodesign); conditions: Homo sapiens; ARH-77 (BLOOD); read-out: IC50 (Concentration of test compound)
# How it was run: as §1
# LB37-NSCLC = test: Anti-proliferative assay (Oncodesign); conditions: LB37-NSCLC (LUNG); read-out: IC50 (Concentration of test compound)
# How it was run: as §1
# LB11-SCLC/OC1 = test: Anti-proliferative assay (Oncodesign); conditions: LB11-SCLC/OC1 (LUNG); read-out: IC50 (Concentration of test compound)
# How it was run: as §1
# CGL-9 = test: Anti-proliferative assay (Oncodesign); conditions: CGL-9 (BRAIN); read-out: IC50 (Concentration of test compound)
# How it was run: as §1
# HL-60 = test: Anti-proliferative assay (Oncodesign); conditions: Homo sapiens; HL-60 (BLOOD); read-out: IC50 (Concentration of test compound)
# How it was run: as §1
# ZR-75-1 = test: Anti-proliferative assay (Oncodesign); conditions: Homo sapiens; ZR-75-1 (BREAST); read-out: IC50 (Concentration of test compound)
# How it was run: as §1
# BB64-RCC = test: Anti-proliferative assay (Oncodesign); conditions: BB64-RCC (KIDNEY); read-out: IC50 (Concentration of test compound)
# How it was run: as §1
# SK-HEP-1 = test: Anti-proliferative assay (Oncodesign); conditions: Homo sapiens, SK-HEP1; SK-HEP-1 (LIVER); read-out: IC50 (Concentration of test compound)
# How it was run: as §1
# SK-MES-1 = test: Anti-proliferative assay (Oncodesign); conditions: Homo sapiens; SK-MES-1 (LUNG); read-out: IC50 (Concentration of test compound)
# How it was run: as §1
# KG-1 = test: Anti-proliferative assay (Oncodesign); conditions: Homo sapiens; KG-1 (BLOOD); read-out: IC50 (Concentration of test compound)
# How it was run: as §1
# LB831-BLC = test: Anti-proliferative assay (Oncodesign); conditions: LB831-BLC (URINARY BLADDER); read-out: IC50 (Concentration of test compound)
# How it was run: as §1
# A-431 = test: Anti-proliferative assay (Oncodesign); conditions: Homo sapiens; A-431 (SKIN); read-out: IC50 (Concentration of test compound)
# How it was run: as §1
# RPMI 8226 = test: Anti-proliferative assay (Oncodesign); conditions: Homo sapiens; RPMI 8226 (BLOOD); read-out: IC50 (Concentration of test compound)
# How it was run: as §1
# OCI-AML2 = test: Anti-proliferative assay (Oncodesign); conditions: Homo sapiens; OCI-AML2 (BLOOD); read-out: IC50 (Concentration of test compound)
# How it was run: as §1
# Raji = test: Anti-proliferative assay (Oncodesign); conditions: Homo sapiens; Raji (BLOOD); read-out: IC50 (Concentration of test compound)
# How it was run: as §1
# A-375-SM = test: Anti-proliferative assay (Oncodesign); conditions: Homo sapiens, A375-SM; A-375-SM (SKIN); read-out: IC50 (Concentration of test compound)
# How it was run: as §1
# A-375 = test: Anti-proliferative assay (Oncodesign); conditions: Homo sapiens; A-375 (SKIN); read-out: IC50 (Concentration of test compound)
# How it was run: as §1
# CGL-1 = test: Anti-proliferative assay (Oncodesign); conditions: CGL-1 (BRAIN); read-out: IC50 (Concentration of test compound)
# How it was run: as §1
# Calu-6 = test: Anti-proliferative assay (Oncodesign); conditions: Homo sapiens; Calu-6 (LUNG); read-out: IC50 (Concentration of test compound)
# How it was run: as §1
# BB65-RCC = test: Anti-proliferative assay (Oncodesign); conditions: BB65-RCC (KIDNEY); read-out: IC50 (Concentration of test compound)
# How it was run: as §1
# A-498 = test: Anti-proliferative assay (Oncodesign); conditions: Homo sapiens, A498; A-498 (KIDNEY); read-out: IC50 (Concentration of test compound)
# How it was run: as §1
# one hundred cell lines = test: Anti-proliferative assays against one hundred cell lines; conditions: wide range of different cell lines
# Experimental: The anti-proliferative activities of the parent compounds of the pro-drugs of the invention may be determined by measuring the ability of the compounds to inhibition of cell growth in a number of cell lines such as the human colon cancer cell line HCT116. Inhibition of cell growth is measured using the Alamar Blue assay (Nociari, M. M, Shalev, A., Benias, P., Russo, C. Journal of Immunological Methods 1998, 213, 157-167). The method is based on the ability of viable cells to reduce resazurin to its fluorescent product resorufin. For each proliferation assay cells are plated onto 96 well plates and allowed to recover for 16 hours prior to the addition of inhibitor compounds for a further 72 hours. At the end of the incubation period 10% (v/v) Alamar Blue is added and incubated for a further 6 hours prior to determination of fluorescent product at […]. In the case of the non-proliferating cell assay cells are maintained at confluence for 96 hour prior to the addition of inhibitor compounds for a further 72 hours. The number of viable cells is determined by Alamar Blue assay as before. Cell lines may be obtained from the ECACC (European Collection of cell Cultures). […]
structure (smiles),measurement,setting,value
"CC(C)c1cc(C(=O)N2Cc3ccc(CN4CCN(C)CC4)cc3C2)c(O)cc1O [(2,4-dihydroxy-5-isopropyl-phenyl)-[5-(4-methyl-piperazin-1-ylmethyl)-1,3-dihydro-isoindol-2-yl]-methanone]",IC50,Hs 294T,219 nM
same,IC50,NCI-H460,118 nM
same,IC50,NCI-H596,84 nM
same,IC50,ARH-77,> 10000 nM
same,IC50,LB37-NSCLC,63 nM
same,IC50,LB11-SCLC/OC1,17 nM
same,IC50,CGL-9,161 nM
same,IC50,HL-60,389 nM
same,IC50,ZR-75-1,131 nM
same,IC50,BB64-RCC,> 10000 nM
same,IC50,SK-HEP-1,> 10000 nM
same,IC50,SK-MES-1,270 nM
same,IC50,KG-1,> 10000 nM
same,IC50,LB831-BLC,149 nM
same,IC50,A-431,3800 nM
same,IC50,RPMI 8226,10 nM
same,IC50,OCI-AML2,> 10000 nM
same,IC50,Raji,881 nM
same,IC50,A-375-SM,340 nM
same,IC50,A-375,1480 nM
same,IC50,CGL-1,> 10000 nM
same,IC50,Calu-6,32 nM
same,IC50,BB65-RCC,1250 nM
same,IC50,A-498,267 nM
same,anti-proliferative activity,one hundred cell lines,potent anti-proliferative activity
